The nature of the experiment: Functional Dkk1-LRP5-TCF-Luciferase Assay in U2OS Cells (table columns: A=MAX FOLD Induction/DMSO CONTROL; B=fold induction @ 2.0 uM; C=fold induction @ 20.0 uM). In kind it is cell-based, Human. The settings on record: Homo sapiens, U2OS; for fold induction at 2 µM: 2.0 uM compound; for fold induction at 20 µM: 20.0 uM compound. Here is the method: Biological Evaluation—Functional Dkk1-LRP5-TCF-Luciferase Assay in U2OS Cells
U2OS Human Bone derived cells (Osteosarcoma) are grown in McCoy's 5A Medium (Modified), with L-glutamine (GIBCO Cat No. 16600-082)+1% Pen-Strep+5% FBS) plated at 1×10^7 cells/T175 cm flask. The next day, the cells are co-transfected overnight with the following plasmids: (a) Test reporter (16×TCF-TK-FireFly-Luci), (b) Internal Control Reporter (TK-Renilla-Luci), (c) Wnt3a and (d) Dkk1. GIBCO's Lipofectamine 2000 and OptiMEM were used for the transfection. After a minimum of 4 hr of transfection at 37° C., the plasmid-transfected cells are trypsinized, counted, and suspended in freezing medium (95% FBS+5% DMSO). The reporter cells are frozen at 1×10^7/ml concentrations, aliquoted into 0.5 ml or 2.5 ml/tube and stored at −70° C.
The following day, test compounds are added under HTS setup by Plate Track into 384 well plates (white, TC treated, Falcon plate) such that the final concentration of the compounds in 20 μL/well cell will be 5 μg/ml (final concentration of DMSO=0.25% and final compound concentration=20 μM). Vials of frozen reporter cells are thawed by warming the vial in a 37° C. water bath for 60-120 seconds with some shaking until the cells formed a suspension. The thawed cells are transferred into a cold 50 ml (or larger) tube and mixed well by gentle pipetting. The appropriate amount of cold Phenol Red Free RPMI medium-1640 (GIBCO, Cat # 11835-030) with L-glutamine is added, both with ˜5% FBS (GIBCO-BRL, Cat. # 16000-044), so that 20 μl of the final cell suspension will contain ˜5,000 cells. The cell dilution is done such that the final concentration of FBS was ˜5%. Diluted cells (20 μl) are added into each well in a 384 well plate. The plate is incubated at 37° C. under 5% CO2 for ˜20 h. Bright-Glo substrate, 2.5 μl/well is added, and the Fire Fly Luciferase is measured using VLUX (60 second exposure) immediately after the substrate was added. Test compounds are dissolved in DMSO (100%) and added to specified wells. Raw luciferase signal data obtained as relative luminescence units (RLUs) for the test compounds are normalized to the signal of the mean of the sample reporter cell plate with DMSO.
Active compounds have TCF-luciferase ratios of 2.5 fold or greater over DMSO. All compounds show a signal increase of at least 10% compared to a signal with only DMSO added.
A=MAX FOLD Induction/DMSO CONTROL
B=TCF ACTIVITY/DMSO CONTROL Fold induction @ 2.0 uM C=TCF ACTIVITY/DMSO CONTROL Fold induction @ 20.0 uM

Each structure is given as a SMILES string.

What is called fold induction is the signal under treatment as a multiple of the control signal. Take `Cc1ccc(-c2nc3c(-c4ccc5ccccc5c4)ccnc3n2C2CCNCC2)c(C)c1` [2-(2,4-dimethylphenyl)-7-(2-naphthyl)-3-piperidin-4-yl-3H-imidazo[4,5-b]pyridine]: the fold induction at 2 µM turned out to be 1.3. In the case of `Fc1cccc(F)c1-c1nc2c(-c3ccc4ccccc4c3)ccnc2n1C1CCNCC1` [2-(2,6-difluorophenyl)-7-(2-naphthyl)-3-piperidin-4-yl-3H-imidazo[4,5-b]pyridine], the fold induction at 2 µM stood at 1.11. On the same count and under the same terms, with `Brc1ccccc1-c1nc2c(-c3ccc4ccccc4c3)ccnc2n1C1CCNCC1` [2-(2-bromophenyl)-7-(2-naphthyl)-3-piperidin-4-yl-3H-imidazo[4,5-b]pyridine] the figure was 1.6; with `Cc1cn(-c2ccccc2)c(Cl)c1-c1nc2c(-c3ccc4ccccc4c3)ccnc2n1C1CCNCC1` [2-(2-chloro-4-methyl-1-phenyl-1H-pyrrol-3-yl)-7-(2-naphthyl)-3-piperidin-4-yl-3H-imidazo[4,5-b]pyridine], 1.48; with `Clc1ccccc1-c1nc2c(-c3ccc4ccccc4c3)ccnc2n1C1CCNCC1` [2-(2-chlorophenyl)-7-(2-naphthyl)-3-piperidin-4-yl-3H-imidazo[4,5-b]pyridine], 1.36. With `Fc1ccccc1-c1nc2cc(-c3ccc4ccccc4c3)cnc2n1C1CCNCC1` [2-(2-fluorophenyl)-6-(2-naphthyl)-3-piperidin-4-yl-3H-imidazo[4,5-b]pyridine], the fold induction at 2 µM amounted to 1.29. `Fc1ccccc1-c1nc2c(-c3ccc4ccccc4c3)ccnc2n1C1CCNCC1` [2-(2-fluorophenyl)-7-(2-naphthyl)-3-piperidin-4-yl-3H-imidazo[4,5-b]pyridine]: the fold induction at 2 µM is 1.29.

For `c1coc(-c2nc3cc(-c4ccc5ccccc5c4)cnc3n2C2CCNCC2)c1` [2-(2-furyl)-6-(2-naphthyl)-3-piperidin-4-yl-3H-imidazo[4,5-b]pyridine], the fold induction at 2 µM stood at 1.27 and the fold induction at 20 µM amounted to 0.01. For `c1coc(-c2nc3c(-c4ccc5ccccc5c4)ccnc3n2C2CCNCC2)c1` [2-(2-furyl)-7-(2-naphthyl)-3-piperidin-4-yl-3H-imidazo[4,5-b]pyridine], the fold induction at 2 µM came to 1.82 and the fold induction at 20 µM is 0.01.

Take `COc1ccc2ccccc2c1-c1nc2c(-c3ccc4ccccc4c3)ccnc2n1C1CCNCC1` [2-(2-methoxy-1-naphthyl)-7-(2-naphthyl)-3-piperidin-4-yl-3H-imidazo[4,5-b]pyridine]: the fold induction at 2 µM amounted to 1.17.

For `COc1ccccc1-c1nc2cc(-c3ccc4ccccc4c3)cnc2n1C1CCNCC1` [2-(2-methoxyphenyl)-6-(2-naphthyl)-3-piperidin-4-yl-3H-imidazo[4,5-b]pyridine], the fold induction at 2 µM worked out at 1.37 and the fold induction at 20 µM was 0.01. Consider `COc1ccccc1-c1nc2c(-c3ccc4ccccc4c3)ccnc2n1C1CCNCC1` [2-(2-methoxyphenyl)-7-(2-naphthyl)-3-piperidin-4-yl-3H-imidazo[4,5-b]pyridine], for which the fold induction at 2 µM is 1.99.

For the molecule `COc1ncccc1-c1nc2c(-c3ccc4ccccc4c3)ccnc2n1C1CCNCC1` [2-(2-methoxypyridin-3-yl)-7-(2-naphthyl)-3-piperidin-4-yl-3H-imidazo[4,5-b]pyridine], the fold induction at 2 µM was found to be 1.5. As to `Cc1nc(-c2nc3c(-c4ccc5ccccc5c4)ccnc3n2C2CCNCC2)c[nH]1` [2-(2-methyl-1H-imidazol-4-yl)-7-(2-naphthyl)-3-piperidin-4-yl-3H-imidazo[4,5-b]pyridine], the fold induction at 2 µM was 1.04 and the fold induction at 20 µM is 0.02. For `Clc1cncc(Cl)c1-c1nc2c(-c3ccc4ccccc4c3)ccnc2n1C1CCNCC1` [2-(3,5-dichloropyridin-4-yl)-7-(2-naphthyl)-3-piperidin-4-yl-3H-imidazo[4,5-b]pyridine], the fold induction at 2 µM worked out at 1.95 and the fold induction at 20 µM came to 0.29. Take `Brc1cccc(-c2nc3c(-c4ccc5ccccc5c4)ccnc3n2C2CCNCC2)c1` [2-(3-bromophenyl)-7-(2-naphthyl)-3-piperidin-4-yl-3H-imidazo[4,5-b]pyridine]: the fold induction at 2 µM turned out to be 1.52. Same read-out and setting: for `Clc1cccc(-c2nc3cc(-c4ccc5ccccc5c4)cnc3n2C2CCNCC2)c1` [2-(3-chlorophenyl)-6-(2-naphthyl)-3-piperidin-4-yl-3H-imidazo[4,5-b]pyridine] the value was 0.98; for `Clc1cccc(-c2nc3c(-c4ccc5ccccc5c4)ccnc3n2C2CCNCC2)c1` [2-(3-chlorophenyl)-7-(2-naphthyl)-3-piperidin-4-yl-3H-imidazo[4,5-b]pyridine], 1.5; for `Fc1cccc(-c2nc3c(-c4ccc5ccccc5c4)ccnc3n2C2CCNCC2)c1` [2-(3-fluorophenyl)-7-(2-naphthyl)-3-piperidin-4-yl-3H-imidazo[4,5-b]pyridine], 1.55. Still for that read-out and setting: for `COc1cccc(-c2nc3cc(-c4ccc5ccccc5c4)cnc3n2C2CCNCC2)c1` [2-(3-methoxyphenyl)-6-(2-naphthyl)-3-piperidin-4-yl-3H-imidazo[4,5-b]pyridine] the value was 0.97; for `COc1cccc(-c2nc3c(-c4ccc5ccccc5c4)ccnc3n2C2CCNCC2)c1` [2-(3-methoxyphenyl)-7-(2-naphthyl)-3-piperidin-4-yl-3H-imidazo[4,5-b]pyridine], 1.25; for `Cc1cccc(-c2nc3cc(-c4ccc5ccccc5c4)cnc3n2C2CCNCC2)c1` [2-(3-methylphenyl)-6-(2-naphthyl)-3-piperidin-4-yl-3H-imidazo[4,5-b]pyridine], 1.33. `Cc1cccc(-c2nc3c(-c4ccc5ccccc5c4)ccnc3n2C2CCNCC2)c1` [2-(3-methylphenyl)-7-(2-naphthyl)-3-piperidin-4-yl-3H-imidazo[4,5-b]pyridine]: the fold induction at 2 µM amounted to 1.91. As for `Cc1cc(-c2nc3c(-c4ccc5ccccc5c4)ccnc3n2C2CCNCC2)oc1C` [2-(4,5-dimethyl-2-furyl)-7-(2-naphthyl)-3-piperidin-4-yl-3H-imidazo[4,5-b]pyridine], the fold induction at 2 µM turned out to be 1.54.

Take `Brc1ccc(-c2nc3c(-c4ccc5ccccc5c4)ccnc3n2C2CCNCC2)cc1` [2-(4-bromophenyl)-7-(2-naphthyl)-3-piperidin-4-yl-3H-imidazo[4,5-b]pyridine]: the fold induction at 2 µM was found to be 1.23.

On to `Clc1ccc(-c2nc3c(-c4ccc5ccccc5c4)ccnc3n2C2CCNCC2)cc1` [2-(4-chlorophenyl)-7-(2-naphthyl)-3-piperidin-4-yl-3H-imidazo[4,5-b]pyridine], for which the fold induction at 2 µM came out at 1.21. As for `CC(C)c1ccc(-c2nc3cc(-c4ccc5ccccc5c4)cnc3n2C2CCNCC2)cc1` [2-(4-isopropylphenyl)-6-(2-naphthyl)-3-piperidin-4-yl-3H-imidazo[4,5-b]pyridine], the fold induction at 2 µM worked out at 1.14. With `CC(C)c1ccc(-c2nc3c(-c4ccc5ccccc5c4)ccnc3n2C2CCNCC2)cc1` [2-(4-isopropylphenyl)-7-(2-naphthyl)-3-piperidin-4-yl-3H-imidazo[4,5-b]pyridine], the fold induction at 2 µM is 1.03. Regarding `Cc1nc[nH]c1-c1nc2c(-c3ccc4ccccc4c3)ccnc2n1C1CCNCC1` [2-(4-methyl-1H-imidazol-5-yl)-7-(2-naphthyl)-3-piperidin-4-yl-3H-imidazo[4,5-b]pyridine], the fold induction at 2 µM was found to be 1.31. In the case of `Cc1ccc(-c2nc3cc(-c4ccc5ccccc5c4)cnc3n2C2CCNCC2)cc1` [2-(4-methylphenyl)-6-(2-naphthyl)-3-piperidin-4-yl-3H-imidazo[4,5-b]pyridine], the fold induction at 2 µM stood at 1. On to `Cc1ccc(-c2nc3c(-c4ccc5ccccc5c4)ccnc3n2C2CCNCC2)cc1` [2-(4-methylphenyl)-7-(2-naphthyl)-3-piperidin-4-yl-3H-imidazo[4,5-b]pyridine], for which the fold induction at 2 µM was 1.9. As for `O=[N+]([O-])c1cc(-c2nc3cc(-c4ccc5ccccc5c4)cnc3n2C2CCNCC2)ccc1N1CCOCC1` [2-(4-morpholin-4-yl-3-nitrophenyl)-6-(2-naphthyl)-3-piperidin-4-yl-3H-imidazo[4,5-b]pyridine], the fold induction at 2 µM worked out at 1.01.

(Values after patent US20090069319A1, “IMIDAZOPYRIDINE ANALOGS AND THEIR USE AS AGONISTS OF THE WNT-BETA-CATENIN CELLULAR MESSAGING SYSTEM” (Wyeth, priority 2007, published 2009).)
